{
  "source": "patent US20070092577A1",
  "about": "“Dietary calcium for reducing the production of reactive oxygen species” (University of Tennessee Research Foundation, priority 2005, published 2007)",
  "key": {"cyclin A": {"test_system": "cyclin A", "assay": "Cyclin A expression in 3T3-L1 adipocytes", "format": "cell-based, murine", "conditions": "added to glucose 30 mmol/L, 48 hours; nifedipine 10 μmol/L", "method": "3T3-L1 preadipocytes were incubated at a density of 8000 cells/cm^2 (10 cm^2 dish) and grown in Dulbecco's modified Eagle's medium (DMEM) containing 10% FBS and antibiotics (adipocyte medium) at 37° C. in 5% CO2 in air. Confluent preadipocytes were induced to differentiate with a standard differentiation medium consisting of DMEM-F 10 (1:1, vol/vol) medium supplemented with 1% FBS, 1 μM dexamethasone, IBMX (0.5 mM) and antibiotics (1% Penicillin-Streptomycin). Preadipocytes were maintained in this differentiation medium for 3 days and subsequently cultured in adipocyte medium. Cultures were re-fed every 2-3 days to allow 90% of cells to reach full differentiation before conducting chemical treatment. Chemicals were freshly diluted in adipocyte medium before treatment. […] Cell viability was measured via trypan blue exclusion. Adipocyte 18s, cyclin A, NADPH oxidase, and UCP2 were quantitatively measured using a Smart Cycler Real Time PCR System (Cepheid, Sunnyvale, Calif.) with a TaqMan 1000 Core Reagent Kit (Applied Biosystems, Branchburg, N.J.). […] Reactions of quantitative RT-PCR for standards and unknown samples were also performed according to the instructions of Smart Cycler System (Cepheid, Sunnyvale, Calif.) and TaqMan Real Time PCR Core Kit (Applied Biosystems, Branchburg, N.J.). The mRNA quantitation for each sample was further normalized using the corresponding 18s quantitation."}, "TNFα [1]": {"test_system": "TNFα", "assay": "TNFα expression in differentiated 3T3-L1 adipocytes", "format": "cell-based, mouse", "conditions": "10 nmol/L, 48 h", "method": "3T3-L1 pre-adipocytes were incubated at a density of 8000 cells/cm^2 (10 cm^2 dish) and grown in Dulbecco's modified Eagle's medium (DMEM) containing 10% FBS and antibiotics (adipocyte medium) at 37° C. in 5% CO2 in air. Confluent pre-adipocytes were induced to differentiate with a standard differentiation medium consisting of DMEM-F10 (1:1, vol/vol) medium supplemented with 1% fetal bovine serum (FBS), 1 μM dexamethasone, isobutylmethylxanthine (IBMX) (0.5 mM) and antibiotics (1% Penicillin-Streptomycin). Pre-adipocytes were maintained in this differentiation medium for 3 days and subsequently cultured in adipocyte medium. Cultures were re-fed every 2-3 days to allow 90% cells to reach fully differentiation before conducting chemical treatment. […] Cell viability was measured via trypan blue exclusion. Adipocyte and muscle 18s, TNFα, IL-6, IL-8, IL-15 and adiponectin were quantitatively measured using a smart cycler real-time PCR system (Cepheid, Sunnyvale, Calif.) with a TaqMan 1000 Core Reagent Kit (Applied Biosystems, Branchburg, N.J.). […] Reactions of quantitative RT-PCR for standards and unknown samples were also performed according to the instructions of Smart Cycler System (Cepheid, Sunnyvale, Calif.) and TaqMan Real Time PCR Core Kit (Applied Biosystems, Branchburg, N.J.). The mRNA quantitation for each sample was further normalized using the corresponding 18s quantitation."}, "TNFα [2]": {"test_system": "TNFα", "assay": "TNFα expression in RAW 264 macrophages", "format": "cell-based", "method": "(§1) RAW 264 macrophages and 3T3-L1 preadipocytes (American Type Culture Collection) were incubated at a density of 8000 cells/cm2 (10 cm2 dish) and grown in Dulbecco's modified Eagle's medium (DMEM) containing 10% FBS and antibiotics (adipocyte medium) at 37° C. in 5% CO2 in air. Confluent 3T3-L1 preadipocytes were induced to differentiate with a standard differentiation medium consisting of DMEM-F10 (1:1, vol/vol) medium supplemented with 1% FBS, 1 μM dexamethasone, IBMX (0.5 mM) and antibiotics (1% Penicillin-Streptomycin). Preadipocytes were maintained in this differentiation medium for 3 days and subsequently cultured in adipocyte medium. Cultures were re-fed every 2-3 days to allow 90% cells to reach fully differentiation for 3T3-L1 adipocytes or grow to a confluence for RAW 264 before conducting chemical treatment.\n(§2) Human adipocytes (Zen-Bio, Inc.), 3T3-L1 adipocytes, RAW264 macrophages were obtained and co-cultured by using transwell inserts with 0.4 μm porous membranes (Corning) to separate adipocytes and macrophages. All data are expressed as mean±SEM. Data were evaluated for statistical significance by analysis of one-way or two-way variance (ANOVA; means with different letter differ, p<0.05).\n(§3) Adipocyte and muscle 18s, CD14, TNFα, MIP, M-CSF, IL-6 and MCP-1 were quantitatively measured using a Smart Cycler Real Time PCR System (Cepheid, Sunnyvale, Calif.) with a TaqMan 1000 Core Reagent Kit (Applied Biosystems, Branchburg, N.J.). The primers and probe sets were obtained from Applied Biosystems TaqMan® Assays-on-Demand™ Gene Expression primers and probe set collection according to manufacture's instruction. […] Reactions of quantitative RT-PCR for standards and unknown samples were also performed according to the instructions of Smart Cycler System (Cepheid, Sunnyvale, Calif.) and TaqMan Real Time PCR Core Kit (Applied Biosystems, Branchburg, N.J.). The mRNA quantitation for each sample was further normalized using the corresponding 18s quantitation."}, "IL-6": {"test_system": "IL-6", "assay": "IL-6 expression in RAW 264 macrophages", "format": "cell-based", "method": "as §1, §2, §3"}, "[3]": {"conditions": "co-culture with differentiated 3T3-L1 adipocytes"}, "[4]": {"conditions": "macrophages cultured alone, calcitriol 10 nmol/L, 48 hours"}},
  "data": [
    {"molecule": "C=C1/C(=C\\C=C2/CCC[C@]3(C)[C@@H]([C@H](C)CCCC(C)(C)O)CC[C@@H]23)C[C@@H](O)C[C@@H]1O", "note": "[calcitriol, 1, 25-Dihydroxyvitamin D]", "values": [
      {"measurement": "effect on glucose stimulated cyclin A expression", "setting": "cyclin A", "result": "augmented"},
      {"measurement": "stimulation of TNFα expression", "setting": "TNFα [1]", "result": 135, "unit": "%"},
      {"measurement": "effect on TNFα expression in macrophages in co-culture", "setting": "TNFα [2]; [3]", "result": "further enhanced"},
      {"measurement": "stimulation of TNFα expression", "setting": "TNFα [2]; [4]", "result": 91, "unit": "%"},
      {"measurement": "effect on IL-6 expression in macrophages in co-culture", "setting": "IL-6; [3]", "result": "further enhanced"},
      {"measurement": "stimulation of IL-6 expression", "setting": "IL-6; [4]", "result": 796, "unit": "%"}
    ]}
  ]
}
